From patent US20250326733A1, “A NEW ROUTE FOR SY[…] CHIRAL CANNABINOIDS FROM COUMARINS” (University of Florida Research Foundation, Inc., priority 2021, published 2025)
“Also recorded” adds a separate entry of the source.

Legend:
hCB1R [1] = target: T1, hCB1R (Homo sapiens, UniProt P21554); assay: Functional activity (agonism), TRUPATH assay of Gαiβ3γ9 protein activation; assay type: cell-based; settings: for Emax: mean ± SEM, n >= 3, NA = no observable agonism at concentrations up to 31.6 μM
hCB2R [2] = target: T2, hCB2R (Homo sapiens, UniProt P34972); assay: as above; assay type: cell-based; settings: for Emax: mean ± SEM, n >= 3
T2 sequence (P34972 whole entry): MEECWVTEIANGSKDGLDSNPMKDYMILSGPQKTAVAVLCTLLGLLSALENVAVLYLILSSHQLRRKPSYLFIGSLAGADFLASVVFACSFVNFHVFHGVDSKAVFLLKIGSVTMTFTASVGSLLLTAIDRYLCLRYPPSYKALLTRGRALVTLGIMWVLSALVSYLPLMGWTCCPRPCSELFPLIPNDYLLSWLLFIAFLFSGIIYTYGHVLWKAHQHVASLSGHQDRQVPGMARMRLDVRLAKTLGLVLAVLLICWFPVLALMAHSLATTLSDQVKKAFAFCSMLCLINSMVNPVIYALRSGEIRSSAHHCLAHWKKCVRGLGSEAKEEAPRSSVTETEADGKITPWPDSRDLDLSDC

hCB1R [3] = target: T1, hCB1R; assay: Binding affinity at human cannabinoid receptor 1
hCB2R [4] = target: T2, hCB2R; assay: Binding affinity at human cannabinoid receptor 2; settings: for CB1/CB2: ratio of Ki hCB1R / hCB2R
hCB2R [5] = target: T2, hCB2R; assay: Stimulation of [35S]GTPγS binding (native G protein activation); assay type: biochemical

T1 sequence (P21554 whole entry): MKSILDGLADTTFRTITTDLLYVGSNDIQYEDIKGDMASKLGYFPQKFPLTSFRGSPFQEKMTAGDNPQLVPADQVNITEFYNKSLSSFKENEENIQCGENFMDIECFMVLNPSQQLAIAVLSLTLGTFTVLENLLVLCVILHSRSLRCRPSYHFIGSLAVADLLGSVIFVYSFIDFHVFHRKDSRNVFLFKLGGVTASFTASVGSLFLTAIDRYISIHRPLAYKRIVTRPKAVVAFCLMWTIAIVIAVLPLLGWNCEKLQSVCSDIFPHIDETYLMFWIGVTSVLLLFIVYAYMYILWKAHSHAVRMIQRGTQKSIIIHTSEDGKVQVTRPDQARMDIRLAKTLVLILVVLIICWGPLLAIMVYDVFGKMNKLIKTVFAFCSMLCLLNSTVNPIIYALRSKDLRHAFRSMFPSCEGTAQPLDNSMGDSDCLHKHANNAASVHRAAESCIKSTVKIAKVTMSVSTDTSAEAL

Question: How did the “agonism / efficacy (in words)” value (hCB1R [1]; hCB1R) turn out when C=C(C)[C@@H]1CCC(C)=C[C@H]1c1c(O)cc(CCCCC)cc1O [CBD, cannabidiol, reference compound] was run?
Answer: The value was “no efficacy”.

Question: What about the “agonism / efficacy (in words)” value (hCB2R [2]; hCB2R) of the same compound?
Answer: The value was “no efficacy”.

Question: CCCCCc1cc(O)c2c(c1)OC(C)(C)c1ccc(C)cc1-2 [CBN, cannabinol, reference compound] was tested. Which Ki (hCB1R [3]; Ki (nM), hCB1R) did it give?
Answer: Its Ki is 240 nM.

Question: And the Ki (hCB1R [3]; pKi, hCB1R, one site, FIG. 5)?
Answer: The Ki was 631 nM.

Question: And the Ki (hCB2R [4])?
Answer: Its Ki is 138 nM.

Question: And the CB1/CB2 (hCB2R [4])?
Answer: Its CB1/CB2 is 1.7.

Question: For CCCCCCC(C)(C)c1cc(O)c2c(c1)OC(C)(C)c1ccc(C)c(CO)c1-2 [axCBN-3], which EC50 (hCB1R [1]) is on record?
Answer: Its EC50 is 26.3 nM.

Question: And the Emax (hCB1R [1]; hCB1R)?
Answer: Its Emax is 0.0807 ± 0.0141.

Question: And the EC50 (hCB2R [2])?
Answer: The EC50 was 3.47 nM.

Question: And the Emax (hCB2R [2]; hCB2R)?
Answer: The Emax was 0.120 ± 0.0296.

Question: What about the “potency to stimulate [35S]GTPγS binding, hCB2R versus hCB1R” value (hCB2R [5]; greater at hCB2R than at hCB1R) of the same compound?
Answer: The value was 2 fold.

Question: And the “efficacy in [35S]GTPγS binding (in words)” value (hCB2R [5]; relative to CBN)?
Answer: Its value is “increased efficacy over CBN”.

Question: And the Ki (hCB1R [3]; Ki (nM), hCB1R)?
Answer: Its Ki is 0.661 nM.

Question: And the “affinity, fold higher than CBN” value (hCB1R [3]; hCB1R)?
Answer: Its value is “approximately 360 fold”.

Question: And the “affinity (in words)” value (hCB1R [3]; hCB1R / CB1 receptor)?
Answer: The value was “sub-nanomolar; also recorded: picomolar”.

Question: And the “affinity, fold higher than CBN-DMH reported by Rhee, et al.” value (hCB1R [3]; hCB1R and hCB2R, comparator value from literature)?
Answer: Its value is 5-10 fold.

Question: And the “pKiLo (low affinity site)” value (hCB1R [3]; hCB1R, two site binding model, FIG. 5)?
Answer: The value was 7.3.

Question: What about the Ki (hCB1R [3]; pKiHi (high affinity site), hCB1R, two site binding model, FIG. 5) of the same compound?
Answer: Its Ki is 0.398 nM.

Question: What about the Ki (hCB2R [4]) of the same compound?
Answer: The Ki was 0.933 nM.

Question: And the “affinity, fold higher than CBN” value (hCB2R [4]; hCB2R)?
Answer: The value was ~134 fold.

Question: And the “affinity (in words)” value (hCB2R [4]; hCB2R / CB2 receptor)?
Answer: Its value is “sub-nanomolar; also recorded: picomolar”.

Question: What about the CB1/CB2 (hCB2R [4]) of the same compound?
Answer: The CB1/CB2 was 0.7.

Question: What does the source list for CCCCCCC(C)(C)c1cc(OC(C)=O)c2c(c1)OC(C)(C)c1ccc(C)c(COC(C)=O)c1-2 [axCBN-4]?
Answer: EC50 (hCB1R [1]): 7080 nM; Emax (hCB1R [1]; hCB1R): 0.175 ± 0.0832; EC50 (hCB2R [2]): 178 nM; Emax (hCB2R [2]; hCB2R): 0.120 ± 0.0294; agonist activity (in words) (hCB2R [5]; hCB2R): maintained agonist activity; Ki (hCB1R [3]; Ki (nM), hCB1R): 1200 nM; Ki (hCB2R [4]): 195 nM; selectivity for hCB2R over hCB1R (hCB2R [4]): 6.2 fold; CB1/CB2 (hCB2R [4]): 6.2
